Assay results reported in ChEMBL document CHEMBL1201862, “PubChem BioAssay data set” (2004).
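Five compound concentrations were applied to cells in 96-well plates for 48 hours; endpoints were derived by simple linear interpolation of the resulting dose-response curve. Here, GI50 denotes the concentration required for 50% inhibition of growth.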 Active and inactive are the calls of the source. Cut-off read from the data, not from the text of the source: active = GI50 up to about 1.1 µM and inactive = higher.

Tests used:
Test in all cases: inhibition of tumour cell growth, NCI panel, 48 h
SK-OV-3 = system: SK-OV-3
SK-MEL-28 = system: SK-MEL-28
A498 = system: A498
OVCAR-8 = system: OVCAR-8
HCC 2998 = system: HCC 2998
MDA-N = system: MDA-N
DU-145 = system: DU-145
SK-MEL-2 = system: SK-MEL-2
RPMI-8226 = system: RPMI-8226
OVCAR-4 = system: OVCAR-4
U-251 = system: U-251
HT-29 = system: HT-29
NCI/ADR-RES = system: NCI/ADR-RES
KM12 = system: KM12
MCF7 = system: MCF7
HOP-92 = system: HOP-92
PC-3 = system: PC-3
NCI-H460 = system: NCI-H460
OVCAR-3 = system: OVCAR-3
HOP-62 = system: HOP-62

Measured: GI50

CCOP(=O)(OCC)C(Nc1cccc(F)c1)c1ccccc1 (centres undefined)
inactive: SK-OV-3 > 100 µM | SK-MEL-28 > 100 µM | A498 > 100 µM | OVCAR-8 62.2 µM | HCC 2998 66.1 µM | MDA-N > 100 µM | DU-145 > 100 µM | SK-MEL-2 47.9 µM | RPMI-8226 29.7 µM | OVCAR-4 59.3 µM | U-251 74.1 µM | HT-29 58.1 µM | NCI/ADR-RES 34.5 µM | KM12 67 µM | MCF7 76.6 µM | HOP-92 32.7 µM | PC-3 50.2 µM | NCI-H460 43.9 µM | OVCAR-3 60.5 µM | HOP-62 > 100 µM

C=C1C(=O)O[C@@H]2[C@@H]3O[C@@H](C[C@@H]13)[C@](C)(O)CC/C=C(\C)CCC[C@@H]2C
inactive: SK-OV-3 19.3 µM | SK-MEL-28 15.8 µM | A498 13.2 µM | OVCAR-8 6.7 µM | HCC 2998 17.7 µM | MDA-N 4.75 µM | DU-145 14.2 µM | SK-MEL-2 13.3 µM | RPMI-8226 2.82 µM | OVCAR-4 14.5 µM | U-251 10.5 µM | HT-29 17.3 µM | NCI/ADR-RES 10.6 µM | KM12 16.3 µM | MCF7 7.48 µM | HOP-92 13.2 µM | PC-3 10.4 µM | NCI-H460 14.1 µM | OVCAR-3 12.5 µM | HOP-62 15.9 µM

O=[N+]([O-])c1ccc2nc(-c3ccccn3)c(-c3ccccn3)nc2c1
inactive: SK-OV-3 > 100 µM | SK-MEL-28 > 100 µM | A498 > 100 µM | OVCAR-8 94 µM | HCC 2998 > 100 µM | MDA-N 45.4 µM | DU-145 > 100 µM | SK-MEL-2 > 100 µM | RPMI-8226 > 100 µM | OVCAR-4 > 100 µM | U-251 > 100 µM | HT-29 40.5 µM | NCI/ADR-RES > 100 µM | KM12 > 100 µM | MCF7 57.7 µM | HOP-92 > 100 µM | PC-3 38.5 µM | NCI-H460 45.7 µM | OVCAR-3 29.4 µM | HOP-62 35.1 µM

O=C1CSC(c2cccc([N+](=O)[O-])c2)N1c1ccc(-n2c(-c3ccccc3)nc3ccccc3c2=O)cc1 (centres undefined)
inactive: SK-OV-3 26.2 µM | SK-MEL-28 > 100 µM | A498 > 100 µM | OVCAR-8 > 100 µM | HCC 2998 63.7 µM | MDA-N > 100 µM | DU-145 > 100 µM | SK-MEL-2 56.9 µM | RPMI-8226 > 100 µM | OVCAR-4 > 100 µM | U-251 > 100 µM | HT-29 > 100 µM | NCI/ADR-RES > 100 µM | KM12 > 100 µM | MCF7 > 100 µM | HOP-92 94.8 µM | PC-3 > 100 µM | NCI-H460 > 100 µM | OVCAR-3 > 100 µM | HOP-62 > 100 µM

CCCCc1ccc(-n2sc3ncc(-c4ccccc4)cc3c2=O)cc1
inactive: SK-OV-3 > 100 µM | SK-MEL-28 > 100 µM | A498 > 100 µM | OVCAR-8 43.2 µM | HCC 2998 > 100 µM | MDA-N > 100 µM | DU-145 > 100 µM | SK-MEL-2 > 100 µM | RPMI-8226 > 100 µM | OVCAR-4 42.1 µM | U-251 > 100 µM | NCI/ADR-RES > 100 µM | KM12 > 100 µM | MCF7 > 100 µM | HOP-92 > 100 µM | PC-3 > 100 µM | NCI-H460 > 100 µM | OVCAR-3 > 100 µM | HOP-62 > 100 µM

O=C1Nc2ccccc2/C1=N/N=c1\cccc[nH]1
inactive: SK-OV-3 18.6 µM | SK-MEL-28 > 100 µM | A498 25.8 µM | OVCAR-8 11.9 µM | HCC 2998 23.7 µM | MDA-N > 100 µM | DU-145 21 µM | SK-MEL-2 > 100 µM | RPMI-8226 20.6 µM | OVCAR-4 20.2 µM | U-251 19 µM | HT-29 22.2 µM | NCI/ADR-RES 10.2 µM | KM12 10.8 µM | MCF7 8.17 µM | PC-3 52.8 µM | NCI-H460 14.6 µM | OVCAR-3 48.8 µM | HOP-62 34.1 µM

CCCCn1c(C)c2c(c1C)C(=O)N(CCN1CCN(c3ccccc3Cl)CC1)C2=O
inactive: SK-OV-3 21.6 µM | A498 39 µM | OVCAR-8 44.9 µM | HCC 2998 30.6 µM | MDA-N 34.6 µM | DU-145 36 µM | SK-MEL-2 20 µM | RPMI-8226 24.7 µM | OVCAR-4 51.2 µM | U-251 36.5 µM | HT-29 16.4 µM | NCI/ADR-RES 46.7 µM | KM12 31.5 µM | MCF7 32.4 µM | HOP-92 25.4 µM | PC-3 28.4 µM | NCI-H460 35.5 µM | OVCAR-3 50.7 µM | HOP-62 29 µM

CC1CN=C(Nc2ccc(F)cc2F)S1 (centres undefined)
inactive: SK-OV-3 > 100 µM | SK-MEL-28 > 100 µM | A498 > 100 µM | OVCAR-8 > 100 µM | HCC 2998 > 100 µM | MDA-N > 100 µM | DU-145 > 100 µM | SK-MEL-2 > 100 µM | RPMI-8226 > 100 µM | OVCAR-4 > 100 µM | U-251 > 100 µM | NCI/ADR-RES > 100 µM | KM12 > 100 µM | MCF7 > 100 µM | HOP-92 15.6 µM | PC-3 > 100 µM | NCI-H460 > 100 µM | OVCAR-3 > 100 µM | HOP-62 > 100 µM

Cc1ccc(S(=O)(=O)NCCN(CCNS(=O)(=O)c2ccc(C)cc2)S(=O)(=O)c2ccc(C)cc2)cc1
inactive: SK-OV-3 43.1 µM | SK-MEL-28 43.8 µM | A498 > 100 µM | OVCAR-8 94.6 µM | HCC 2998 > 100 µM | MDA-N > 100 µM | DU-145 > 100 µM | SK-MEL-2 > 100 µM | RPMI-8226 56.2 µM | OVCAR-4 6.53 µM | U-251 28.9 µM | HT-29 > 100 µM | NCI/ADR-RES > 100 µM | KM12 > 100 µM | MCF7 81.7 µM | PC-3 > 100 µM | NCI-H460 > 100 µM | OVCAR-3 > 100 µM | HOP-62 47.4 µM

CCOC(=O)NC(Nc1ccc(OC(F)(F)F)cc1)(C(F)(F)F)C(F)(F)F
inactive: SK-OV-3 > 100 µM | SK-MEL-28 > 100 µM | A498 > 100 µM | OVCAR-8 > 100 µM | HCC 2998 > 100 µM | MDA-N > 100 µM | DU-145 > 100 µM | SK-MEL-2 > 100 µM | RPMI-8226 > 100 µM | U-251 > 100 µM | HT-29 > 100 µM | NCI/ADR-RES > 100 µM | KM12 > 100 µM | MCF7 > 100 µM | HOP-92 > 100 µM | PC-3 > 100 µM | NCI-H460 > 100 µM | OVCAR-3 > 100 µM | HOP-62 > 100 µM
